Assays:
[1] = tested on: KB cells; assay: MTT cytotoxicity assay, KB cells; format: cell-based; conditions: Homo sapiens, 72 h treatment, KB oral epidermoid carcinoma cells
Description: (§1) The cell lines were cultured in DMEM or RPMI 1640 containing 10% fetal bovine serum at 37 °C in the presence of 5% CO2. The cell lines were the oral epidermoid carcinoma cell lines KB and its vincristine-selected ABCB1-overexpressing KBv200 [10]; the breast carcinoma cell lines MCF-7 and its doxorubicin-selected ABCB1-overexpressing MCF-7/adr; the lung carcinoma cell line A549 and normal liver cell line LO2.
(§2) The MTT assay was used to evaluate the cytotoxicity of a number of compounds previously isolated from mangrove-derived fungi as described. Briefly, 3–4 × 10^3 cells were incubated in 96-well plates and allowed to attach overnight before compounds at full range concentrations were added. The concentrations were chosen so that the highest concentration killed most of the cells and the lowest killed none of the cells. After 72 h treatment, 0.5 mg/ml MTT was added to each well for an additional 4 h. Subsequently, the supernatant was removed, and the purple MTT-formazan crystals were dissolved by DMSO. Finally, absorbance was recorded at 540 nm with 655 nm as a reference filter using a Model 550 Microplate Reader (Bio-Rad, USA). Experiments were performed at least three times. The standard chemotherapeutic agent doxorubicin was used as a positive control in MTT assay and normal liver cell line LO2 was used to show whether cytotoxic activity was tumor-specific. The concentrations required to inhibit growth by 50% (IC50) were calculated from survival curves using the Bliss method.

[2] = tested on: KBv200 cells; assay: MTT cytotoxicity assay, KBv200 cells; format: cell-based; conditions: Homo sapiens, 72 h treatment, vincristine-selected ABCB1-overexpressing KBv200 cells
Description: as §1, §2

[3] = tested on: MCF-7 cells; assay: MTT cytotoxicity assay, MCF-7 cells; format: cell-based; conditions: Homo sapiens, MCF7, 72 h treatment, MCF-7 breast carcinoma cells
Description: as §1, §2

[4] = tested on: MCF-7/adr cells; assay: MTT cytotoxicity assay, MCF-7/adr cells; format: cell-based; conditions: Homo sapiens, NCI/ADR-RES, 72 h treatment, doxorubicin-selected ABCB1-overexpressing MCF-7/adr cells
Description: as §1, §2

[5] = tested on: A549 cells; assay: MTT cytotoxicity assay, A549 cells; format: cell-based; conditions: Homo sapiens, 72 h treatment, A549 lung carcinoma cells
Description: as §1, §2

[6] = tested on: normal liver LO2 cells; assay: MTT cytotoxicity assay, normal liver LO2 cells; format: cell-based; conditions: for IC50: Homo sapiens, L02, 72 h treatment; for IC50 / growth inhibitory activity in LO2 cells (in words): normal liver LO2 cells; for sensitivity of cancer cells compared with normal liver LO2 cells: cancer cells versus LO2 cells
Description: as §1, §2

[7] = tested on: pcDNA3.1(+) DNA; assay: DNA binding assay (agarose gel electrophoresis); conditions: 10, 100 or 200 μmol/L with 1 μg pcDNA3.1(+), 37 °C, 3 h; 1% agarose gel
Description: 10, 100 or 200 μmol/L compounds were incubated with 1 μg pcDNA3.1(+) at 37 °C for 3 h. The mixtures were then subjected to electrophoresis on a 1% agarose gel, pre-stained with 0.5 μg/ml ethidium bromide, at 60 V for 40 min. Doxorubicin (DOX) was used as a positive control.

[8] = tested on: KB, KBv200, MCF-7, MCF-7/adr, and A549 cells; assay: MTT anticancer screen, cancer cell panel; format: cell-based, human; conditions: for IC50: Homo sapiens, MTT, KB, KBv200, MCF-7, MCF-7/adr, and A549 cells, read-out: IC50 values (potent cytotoxic activity)
Description: as §1, §2

Row | SMILES | IC50 [1] | IC50 [2] | IC50 [3] | IC50 [4] | IC50 [5] | IC50 [6] | sensitivity of cancer cells compared with normal liver LO2 cells [6] | DNA intercalation / binding to DNA [7] | IC50 [8] | IC50 values in MDR cells compared with parental sensitive cells ([8]; KBv200, MCF-7/adr versus KB, MCF-7) | growth inhibitory activity in LO2 cells (in words) [6]
1 | O=C1c2cc(O)cc(O)c2C(=O)c2c1cc1c(c2O)C2CCCC(O1)O2 (stereo not drawn) [Compound 18] | 28.2 ± 1.66 µM | 44.6 ± 2.57 µM | 17.2 ± 0.95 µM | 25 ± 1.06 µM | 33.9 ± 2.31 µM | > 50 µM | more sensitive | none of the compounds investigated here showed binding to DNA | < 50 µM |  | 
2 | C=C/C=C/COc1cccc2c1C(=O)c1c(O)cccc1C2=O [Compound 13] | 21 ± 1.35 µM | > 50 µM | 16.3 ± 0.71 µM | > 50 µM | 31.2 ± 2.02 µM | > 50 µM |  | none of the compounds investigated here showed binding to DNA | < 50 µM | much higher IC50 values | 
3 | CCOC(=O)COc1cc(C)cc2c1C(=O)c1c(O)cccc1C2=O [Compound 11] | 5.89 ± 0.37 µM | 18.9 ± 1.2 µM | 13.2 ± 0.84 µM | 35.3 ± 2.77 µM | 21.3 ± 1.6 µM | 28.9 ± 1.46 µM |  | none of the compounds investigated here showed binding to DNA | < 50 µM |  | exhibited growth inhibitory activity in LO2 cells
4 | Cc1c(O)cc(O)c(C(=O)O)c1C [Compound 4] | 1.15 ± 0.06 µM | 6.74 ± 0.38 µM | 11.7 ± 0.86 µM | 35.7 ± 2.08 µM | 17.1 ± 1.03 µM | 16.5 ± 1.22 µM |  | none of the compounds investigated here showed binding to DNA | < 50 µM |  | exhibited growth inhibitory activity in LO2 cells
5 | Cc1c(CO)cc([N+](=O)[O-])cc1CO [Compound 1] | 1.57 ± 0.08 µM | 2.67 ± 0.17 µM | 1.38 ± 0.07 µM | 2.34 ± 0.11 µM | 2.71 ± 0.15 µM | 6.59 ± 0.44 µM | more sensitive | none of the compounds investigated here showed binding to DNA | < 50 µM |  | 
